Measurements taken from PubChem BioAssay AID248 (DTP/NCI, 2004).
Where “and” joins values, the source holds several entries; their conditions need not be identical. Equal entries are not always repeated. Inconclusive results and toxic doses are left out. Rule as the data show it: active = T/C of 150% or more; inactive = T/C below 125%.

System: L1210 leukemia ip in BDF1 mice, survival T/C
Test: NCI In Vivo Anticancer Drug Screen. Data for tumor model L1210 Leukemia (intraperitoneal) in B6D2F1 (BDF1) mice
Details: endpoint: mean survival time, higher = longer survival
How it was run: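 Each compound was tested against a transplantable tumor grown in mice. The endpoint was survival, with treated animals benchmarked against vehicle controls as a simple ratio.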

[1] = dose: 100.0 mg/kg/injection, schedule: Q01DX009 (ip), vehicle: saline with Tween-80
[2] = dose: 100.0 mg/kg/injection, schedule: Q04DX002 (ip), vehicle: saline with Tween-80
[3] = dose: 200.0 mg/kg/injection, schedule: Q04DX002 (ip), vehicle: saline with Tween-80
[4] = dose: 400.0 mg/kg/injection, schedule: Q04DX002 (ip), vehicle: saline with Tween-80
[5] = dose: 75.0 mg/kg/injection, schedule: Q01DX001 (ip), vehicle: saline

Measured: T/C

CCCC[S][Pb]([c]1ccccc1)([c]1ccccc1)[c]1ccccc1
inactive: dose: 100.0 mg/kg/injection, schedule: Q01DX001 (ip), vehicle: Klucel (hydroxypropylcellulose) (HPC) 101 % of control | dose: 200.0 mg/kg/injection, schedule: Q01DX001 (ip), vehicle: Klucel (hydroxypropylcellulose) (HPC) 106 % of control

Clc1ccc(N=Cc2ccccc2Cl)cc1
inactive: [1] 94 % of control | dose: 200.0 mg/kg/injection, schedule: Q01DX009 (ip), vehicle: saline with Tween-80 92 % of control | dose: 400.0 mg/kg/injection, schedule: Q01DX009 (ip), vehicle: saline with Tween-80 89 % of control

Cc1cc(C)c(-c2cc(C(O)C3OC4OC(C)(C)OC4C4OC(C)(C)OC34)on2)c(C)c1 (configuration not stated)
inactive: [2] 97 % of control | [3] 87 % of control | [4] 87 % of control

NC(=O)c1cc(NC(=O)c2ccc(C(=O)Nc3cc(C(N)=O)cc(C4=NCCN4)c3)cc2)cc(C2=NCCN2)c1
inactive: dose: 4.0 mg/kg/injection, schedule: Q01DX015 (ip), vehicle: methylcellulose (MC) 103 % of control | dose: 8.0 mg/kg/injection, schedule: Q01DX015 (ip), vehicle: methylcellulose (MC) 92 % of control | dose: 16.0 mg/kg/injection, schedule: Q01DX015 (ip), vehicle: methylcellulose (MC) 105 % of control | dose: 62.5 mg/kg/injection, schedule: Q01DX015 (ip), vehicle: methylcellulose (MC) 116 % of control | dose: 125.0 mg/kg/injection, schedule: Q01DX015 (ip), vehicle: methylcellulose (MC) 117 % of control

CO[C@]12[C@@H](COC(=O)NCCO)C3=C(C(=O)C(C)=C(N)C3=O)N1C[C@@H]1[C@H]2N1C (some centres not stated)
inactive: [5] 112 % of control

CC(=O)N1CN(C(C)=O)CN(C(C)=O)C1
inactive: dose: 100.0 mg/kg/injection, schedule: Q01DX009 (ip), vehicle: Klucel (hydroxypropylcellulose) (HPC) 95 % of control | [2] 91 % of control | dose: 200.0 mg/kg/injection, schedule: Q01DX009 (ip), vehicle: Klucel (hydroxypropylcellulose) (HPC) 92 % of control | [3] 102 % of control | dose: 400.0 mg/kg/injection, schedule: Q01DX009 (ip), vehicle: Klucel (hydroxypropylcellulose) (HPC) 97 % of control | [4] 95 % of control

CNC1CCCCC1
inactive: dose: 50.0 mg/kg/injection, schedule: Q01DX001 (ip), vehicle: carboxymethylcellulose (CMC) 96 % of control | dose: 100.0 mg/kg/injection, schedule: Q01DX001 (ip), vehicle: carboxymethylcellulose (CMC) 102 % of control | dose: 200.0 mg/kg/injection, schedule: Q01DX001 (ip), vehicle: carboxymethylcellulose (CMC) 106 % of control | dose: 400.0 mg/kg/injection, schedule: Q01DX001 (ip), vehicle: carboxymethylcellulose (CMC) 112 % of control

OCCN1CCN(CC/C=C2/c3ccccc3Sc3ccc(Cl)cc32)CC1
inactive: dose: 6.25 mg/kg/injection, schedule: Q01DX001 (ip), vehicle: saline 96 % of control | dose: 8.0 mg/kg/injection, schedule: Q01DX015 (ip), vehicle: saline 107 % of control | dose: 12.5 mg/kg/injection, schedule: Q01DX001 (ip), vehicle: saline 102 % of control | dose: 12.5 mg/kg/injection, schedule: Q01DX009 (ip), vehicle: saline 108 % of control | dose: 25.0 mg/kg/injection, schedule: Q01DX001 (ip), vehicle: saline 98 % of control and 122 % of control | dose: 25.0 mg/kg/injection, schedule: Q01DX009 (ip), vehicle: saline 116 % of control | dose: 25.0 mg/kg/injection, schedule: Q04DX003 (ip), vehicle: saline 110 % of control | dose: 37.5 mg/kg/injection, schedule: Q01DX001 (ip), vehicle: saline 101 % of control | dose: 50.0 mg/kg/injection, schedule: Q01DX001 (ip), vehicle: saline 113 % of control | dose: 50.0 mg/kg/injection, schedule: Q04DX003 (ip), vehicle: saline 116 % of control | [5] 102 % of control and 120 % of control | dose: 100.0 mg/kg/injection, schedule: Q01DX001 (ip), vehicle: saline 100 % of control

O=C(Nc1cc([N+](=O)[O-])ccc1F)Oc1ccccc1F
inactive: dose: 100.0 mg/kg/injection, schedule: Q04DX003 (ip), vehicle: Klucel (hydroxypropylcellulose) (HPC) 102 % of control | dose: 200.0 mg/kg/injection, schedule: Q04DX003 (ip), vehicle: Klucel (hydroxypropylcellulose) (HPC) 94 % of control | dose: 400.0 mg/kg/injection, schedule: Q04DX003 (ip), vehicle: Klucel (hydroxypropylcellulose) (HPC) 98 % of control

CC12CC3(O)CCC1CCC2C(=O)C3 (configuration not stated)
inactive: dose: 100.0 mg/kg/injection, schedule: Q01DX009 (ip), vehicle: saline 95 % of control | dose: 100.0 mg/kg/injection, schedule: Q04DX003 (ip), vehicle: saline 93 % of control | dose: 200.0 mg/kg/injection, schedule: Q04DX003 (ip), vehicle: saline 96 % of control | dose: 400.0 mg/kg/injection, schedule: Q01DX009 (ip), vehicle: saline 96 % of control | dose: 400.0 mg/kg/injection, schedule: Q04DX003 (ip), vehicle: saline 105 % of control

CC1(C)Cc2cc3ccccc3nc2-c2ccccc21
inactive: dose: 25.0 mg/kg/injection, schedule: Q01DX009 (ip), vehicle: saline with Tween-80 97 % of control | dose: 50.0 mg/kg/injection, schedule: Q01DX009 (ip), vehicle: saline with Tween-80 97 % of control | [1] 94 % of control
